The text below walks through data of patent publication US5973204A (priority 1997, dated 1999).

Some results are limits rather than exact numbers.

Series [1] deals with T1, glycine receptors (Rattus norvegicus, UniProt P07727).
T1 construct: from tissue; host or cells: rat spinal cord / brainstem synaptic membranes (inferred from the cited method)
Kind of series: binding tests, affinity to glycine receptors (% displacement). From the text: The compounds of the invention have shown in binding tests a higher affinity to glycine receptors (Table I) than a structurally similar compound, i.e. thiocolchicoside.
The interaction of the compositions of the invention with their receptors has been evaluated according to the procedure by A. B. Young and S. H. Snyder reported in Proc. Natl. Acad. Sci U.S.A. 71, 4002, 1974.

The subject of series [2] is polysynaptic reflexes induced by strychnine. Kind of series: inhibition of the polysynaptic reflexes induced by strychnine in rabbits. Type of series: in vivo, rabbit. As to conditions: for reduction of polysynaptic reflexes / removal of the potentiation of strychnine-induced reflexes: rabbits, 1 mg/kg intramuscularly. From the text:
The inhibition of the polysynaptic reflexes induced by strychnine in rabbits has been studied for the in vivo tests.

Series [3] can be described thus: acute toxicity (DL50) in the mouse. As to conditions: in vivo, iv. The method, then: The DL50 of the compounds I-III is, in fact, higher than 30 mg/kg i.v. in the mouse, the DL50 of thiocolchicoside being 7.5 mg/kg.

T1 sequence (P07727 29-457): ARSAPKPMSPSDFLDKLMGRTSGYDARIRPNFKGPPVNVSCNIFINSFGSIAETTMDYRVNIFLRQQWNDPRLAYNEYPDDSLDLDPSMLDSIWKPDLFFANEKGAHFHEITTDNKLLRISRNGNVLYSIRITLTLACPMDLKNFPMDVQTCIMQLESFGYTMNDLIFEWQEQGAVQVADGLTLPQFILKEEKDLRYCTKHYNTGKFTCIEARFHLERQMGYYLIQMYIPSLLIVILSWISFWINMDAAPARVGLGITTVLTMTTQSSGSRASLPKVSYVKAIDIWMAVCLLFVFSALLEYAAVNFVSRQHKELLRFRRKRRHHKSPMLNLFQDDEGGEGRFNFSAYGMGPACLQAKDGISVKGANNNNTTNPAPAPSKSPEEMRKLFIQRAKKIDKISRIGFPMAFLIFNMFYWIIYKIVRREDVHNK
T1 sequence (P20781 23-496 partner): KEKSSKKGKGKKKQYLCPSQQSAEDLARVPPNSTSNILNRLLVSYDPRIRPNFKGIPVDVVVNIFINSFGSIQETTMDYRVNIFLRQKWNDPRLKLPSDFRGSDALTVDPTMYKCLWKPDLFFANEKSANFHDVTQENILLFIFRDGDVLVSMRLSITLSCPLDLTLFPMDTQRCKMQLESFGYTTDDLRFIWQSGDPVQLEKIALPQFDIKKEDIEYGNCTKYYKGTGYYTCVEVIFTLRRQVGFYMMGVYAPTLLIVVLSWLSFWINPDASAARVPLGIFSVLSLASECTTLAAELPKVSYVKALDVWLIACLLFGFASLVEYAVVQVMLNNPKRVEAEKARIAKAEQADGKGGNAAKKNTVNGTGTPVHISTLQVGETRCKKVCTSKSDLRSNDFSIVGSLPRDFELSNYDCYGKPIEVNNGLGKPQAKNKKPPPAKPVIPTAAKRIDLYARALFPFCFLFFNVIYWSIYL

Regarding `COc1c(OCC2CO2)cc2c(c1OC)-c1ccc(SC)c(=O)cc1[C@@H](NC(C)=O)CC2` (some centres unmarked) [Compound I, 3-demethyl-3-glycidylthiocolchicine], in series [1], at 0.1 µM the inhibition was 40% and the inhibition (in general, the change of the read-out against control, counted positive when it falls) at 1 µM turned out to be 85%. Moreover, in series [2], the “reduction of polysynaptic reflexes” value came to 50% and the “removal of the potentiation of strychnine-induced reflexes” value (“removal” for short) is on record as “removing completely”.

In series [1], `COc1c(OCC(O)CO)cc2c(c1OC)-c1ccc(SC)c(=O)cc1[C@@H](NC(C)=O)CC2` (some centres unmarked) [Compound II, 3-demethyl-3-(2,3-dihydroxyrpropyl)thiocolchicine] registered an inhibition at 0.1 µM of 35% and an inhibition at 1 µM of 65%. Also, in series [2], the “reduction of polysynaptic reflexes” value turned out to be 60% and the “removal” value was “removing completely”.

Regarding `COc1c(OCC(O)CN)cc2c(c1OC)-c1ccc(SC)c(=O)cc1[C@@H](NC(C)=O)CC2` (some centres unmarked) [Compound III, 3-demethyl-3-(3-amino-2-hydroxypropyl)thiocolchicine], in series [1], testing at 0.1 µM gave an inhibition of 50% and testing at 1 µM gave an inhibition of 75%. For the same molecule, in series [2], the “reduction of polysynaptic reflexes” value came to 65% and the “removal” value is “removing completely”.

For `COc1c(O[C@@H]2O[C@H](CO)[C@@H](O)[C@H](O)[C@H]2O)cc2c(c1OC)-c1ccc(SC)c(=O)cc1[C@@H](NC(C)=O)CC2` [thiocolchicoside, 3-demethyl-thiocolchicine glucoside, reference compound], in series [1], testing at 0.1 µM gave an inhibition of 20% and the inhibition at 1 µM came to 70%. The molecule further returned an inhibition at 0.5 µM in series [1] (0.5 μM) of 45%. The minimal effective dose at 1 mg/kg in series [2] (Oryctolagus cuniculus, read-out: minimum dose to obtain comparable effects) is no less than 5 mg/kg. In addition, the 50% lethal dose (LD50) – broadly, the dose at which mortality reaches 50% – in series [3] was found to be 7.5 mg/kg.
